From patent US6251882A, “Alkyl ketones as potent anti-cancer agents” (Parker Hughes Institute, priority 1999, dated 2001)
Structures can show the parent of a compound that is named as a salt. Residues, ends and D or L forms follow the SMILES beside them. *: point of attachment. Farnesyl = CC(C)=CCC/C(C)=C/CC/C(C)=C/C*; Boc = CC(C)(C)OC(=O)*; CHN2 = [N-]=[N+]=C*

Legend:
BT-20 (breast cancer) = test: MTT cytotoxicity assay, BT-20; assay type: cell-based; details: Homo sapiens, 24-36 hours at 37° C., 0.1 to 250 μM
Protocol: (§1) Cytotoxicity of various compounds against tumor cells was performed using the MTT (3-[4,5-[…]]-2,5-diphenyl tetrazolium bromide) assay (Boehringer Mannheim Corp., Indianapolis, Ind.). Unless otherwise specified, all cell lines were obtained from the American Type Culture Collection (ATCC). Briefly, exponentially growing cells were seeded into a 96-well plate at a density of 2.5×10^4 cells/well and incubated for 36 hours at 37° C. prior to drug exposure. On the day of treatment, culture medium was carefully aspirated from the wells and replaced with fresh medium containing the indicated compound at concentrations ranging from 0.1 to 250 μM. Triplicate wells were used for each treatment.
(§2) Human leukemic cell lines (NALM-6, MOLT-3) glioblastoma cells (U373) and human breast tumor cell lines (BT20 and MDA-MB-231) were obtained from the American Type Culture Collection and maintained as a continuous cell line in Dulbecco's modified Eagles's medium supplemented with 10% fetal bovine serum and antibiotics.
(§3) The cells were incubated with the various compounds for 24-36 hours at 37° C. in a humidified 5% CO2 atmosphere. To each well, 10 μl of MTT (0.5 mg/ml final concentration) was added and the plates were incubated at 37° C. for 4 hours to allow MTT to form formazan crystals by reacting with metabolically active cells. The formazan crystals were solubilized overnight at 37° C. in a solution containing 10% SDS in 0.01 M HCl. The absorbence of each well was measured in a microplate reader (Labsystems) at 540 nm and a reference wavelength of […]. To translate the OD540 values into the number of live cells in each well, the OD540 values were compared to those on standard OD540 --versus--cell number curves generated for each cell line. The percent survival was calculated using the formula: [formula]
(§4) The IC50 values were calculated by non-linear regression analysis and are shown below in Tables 1-6.

Molt-3 (T-lineage ALL) = test: MTT cytotoxicity assay, Molt-3; assay type: cell-based, human; details: Homo sapiens, MOLT-3, MTT, 24-36 hours at 37° C., 0.1 to 250 μM
Protocol: as §1, §2, §3, §4

U-373 (glioblastoma) = test: MTT cytotoxicity assay, U-373; assay type: cell-based; details: Homo sapiens, U373 MG, 24-36 hours at 37° C., 0.1 to 250 μM
Protocol: as §1, §2, §3, §4

PC-3 (prostate cancer) = test: MTT cytotoxicity assay, PC-3; assay type: cell-based; details: 24-36 hours at 37° C., 0.1 to 250 μM
Protocol: as §1, §3, §4

Nalm-6 (B-lineage ALL) = test: MTT cytotoxicity assay, Nalm-6; assay type: cell-based; details: Homo sapiens, 24-36 hours at 37° C., 0.1 to 250 μM
Protocol: as §1, §2, §3, §4

Compound	IC50 (BT-20 (breast cancer)) [µM]	IC50 (Molt-3 (T-lineage ALL)) [µM]	IC50 (U-373 (glioblastoma)) [µM]	IC50 (PC-3 (prostate cancer)) [µM]	IC50 (Nalm-6 (B-lineage ALL)) [µM]
CC(C)=CCC/C(C)=C/CC/C(C)=C/CSCCC(=O)CCl [HI-125, S-trans-trans-Farnesyl-2-mercaptoethyl chloromethyl ketone]	> 100	35.5	> 100	> 100	40.7
CCCCCCCCCCCCOC[C@H](NC(C)=O)C(=O)CCl [HI-489, N-Ac-O-dodecyl-serine chloromethyl ketone]	> 100	15.3	> 100	> 100	3.8
CC(C)=CCC/C(C)=C/CC/C(C)=C/CSCC(=O)CCl [HI-126, S-trans-trans-Farnesyl-mercaptomethyl chloromethyl ketone]	> 100	> 100	> 100	> 100	84.3
CC(=O)N[C@@H](CSC/C=C(\C)CC/C=C(\C)CCC=C(C)C)C(=O)CCl [HI-368, N-Ac-S-trans-trans-farnesyl-Cys chloromethyl ketone]	55.8	1.4	61.3	26.8	3
CCCCCCCCCCCCSC[C@H](NC(C)=O)C(=O)C=[N+]=[N-] [HI-348, N-Ac-S-dodecyl-Cys diazomethyl ketone]	97.9	22.9	> 100	> 100	15.4
CCCCCCCCCCCCSC[C@H](N)C(=O)CCl [HI-252, S-Dodecyl-Cys chloromethyl ketone hydrochloride]	> 100	12.5	> 100	> 100	17.7
CCCCCCCCCCCCSC[C@H](NC(C)=O)C(=O)CSCCC(=O)O [HI-273, N-Ac-S-dodecyl-Cys-CH2 -S-CH2 CH2 CO2 H]	20.1	50.3	> 100	> 100	44.4
CC(=O)N[C@@H](CSCc1ccc2ccccc2c1)C(=O)CCl [HI-392, N-Ac-S-2-naphthylmethyl-cysteine chloromethyl ketone]	40.4	2.9	41.8	36.6	2.6
CCCCCCCCCCCCSC[C@H](NC(C)=O)C(=O)N(C)OC [HI-267, N-Ac-S-dodecyl-Cys-N(OCH3)-CH3]	> 100		> 100	> 100	50.1
CCCCCCCCCCCCSC[C@H](NC(C)=O)C(=O)CSc1ccc2ccccc2c1 [HI-302, N-Ac-S-dodecyl-Cys-CH2 -S-2-naphthyl]	> 100	> 100	> 100	> 100	> 100
CCCCCCCCCCCCSC[C@@H](C=O)NC(C)=O [HI-274, N-Ac-S-dodecyl-Cys-H]	22.8	13.1	> 100		12.6
CC(=O)N[C@@H](CSC(=O)OCc1ccccc1)C(=O)CCl [HI-389, N-Ac-S-benzyloxycarbonyl-cysteine chloromethyl ketone]	49.3	3.5	54.4	23.4	1.2
CC(C)=CCC/C(C)=C/CC/C(C)=C/CSC[C@H](NC(=O)CNC(=O)OC(C)(C)C)C(=O)C=[N+]=[N-] [HI-401, N-Boc-Gly-S-trans-trans-farnesyl-Cys diazomethyl ketone] (Boc-Gly-Cys(Farnesyl)-CHN2)	95.1	84.5	> 100	90.6	51.3
CC(=O)N[C@@H](CSC/C=C(\C)CCC=C(C)C)C(=O)CCl [HI-127, N-Ac-S-trans-geranyl-Cys chloromethyl ketone]	> 100	> 100	> 100	> 100	> 100
CCCCCCCCCCCCSC[C@H](NC(=O)OC(C)(C)C)C(=O)CCl [HI-129, N-Boc-S-dodecyl-Cys chloromethyl ketone]	48.9	15.5	> 100	64.6	15.1
CCCCCCCCCCCCSC[C@H](NC(=O)OCC1c2ccccc2-c2ccccc21)C(=O)CCl [HI-398, N-9-Fluorenylmethyloxycarbonyl-S-dodecyl-cysteine chloromethyl ketone]	> 100	32.3	> 100	> 100	25.7

Compound	IC50 (BT-20 (breast cancer)) [µM]	IC50 (Molt-3 (T-lineage ALL)) [µM]	IC50 (U-373 (glioblastoma)) [µM]	IC50 (PC-3 (prostate cancer)) [µM]	IC50 (Nalm-6 (B-lineage ALL)) [µM]
CCCCCCCCCCCCSC[C@H](NC(=O)C(F)(F)F)C(=O)CCl [HI-490, N-Trifluoroacetyl-S-dodecyl-cysteine chloromethyl ketone]	> 100	41.3	> 100	> 100	32.6
CCCCCCCCCCCCSC[C@H](NC(C)=O)C(=O)CSc1c(F)c(F)c(F)c(F)c1F [HI-399]	> 100	40.8	> 100	91.6	91.2
CCCCCCCCCCCCSC[C@H](NC(=O)c1cccc(N(C)C)c1)C(=O)CCl [HI-268, N-3-Dimethylaminobenzoyl-S-dodecyl-cysteine chloromethyl ketone]	> 100		> 100	> 100	96.1
CC(=O)N[C@@H](CSC/C=C(\C)CCC=C(C)C)C(=O)C=[N+]=[N-] [HI-122, N-Ac-S-trans-geranyl-Cys diazomethyl ketone]	> 100	> 100	> 100	> 100	> 100
CCCCCCCCCCCCSC[C@H](NC(C)=O)C(=O)CBr [HI-488, N-Ac-S-dodecyl-cysteine bromomethyl ketone]	33.8	3.19	22.5	39.6	1.3
CC(=O)N[C@@H](CSCC=C(C)C)C(=O)CCl [HI-128, N-Ac-S-(3-methyl-2-butenyl)-Cys chloromethyl ketone]	25.7	7.9	> 100	47.8	12.6
CCCCCCCCCCCCSC[C@H](NC(C)=O)C(=O)CSc1ccccc1 [HI-269, N-Ac-S-dodecyl-Cys-CH2 -SPh]	> 100	> 100	> 100	> 100	> 100
CC(=O)N[C@@H](CSCC=C(C)C)C(=O)C=[N+]=[N-] [HI-123, N-Ac-S-(3-methyl-2-butenyl)-Cys diazomethyl ketone]	> 100	> 100	> 100	> 100	> 100
CC(=O)N[C@@H](CSC/C=C(\C)CC/C=C(\C)CCC=C(C)C)C(=O)C=[N+]=[N-] [HI-367, N-Ac-S-trans-trans-farnesyl-Cys diazomethyl ketone]	> 100	32.2	> 100	> 100	30.3
CC(C)=CCC/C(C)=C/CC/C(C)=C/CSCC(=O)C=[N+]=[N-] [HI-84, S-trans-trans-Farnesyl-mercaptomethyl diazomethyl ketone]	> 100	60.3	> 100	> 100	> 100
CC(C)=CCC/C(C)=C/CC/C(C)=C/CSCCC(=O)C=[N+]=[N-] [HI-83, S-trans-trans-Farnesyl-mercaptoethyl diazomethyl ketone]	> 100	6.8	> 100	> 100	53.5
CC(C)=CCC/C(C)=C/CC/C(C)=C/CSC[C@H](NC(=O)OC(C)(C)C)C(=O)CCl [HI-124, N-Boc-S-farnesyl-Cys chloromethyl ketone]	> 100	7.7	> 100	> 100	10.7
CCCCCCCCCCCCOC[C@H](NC(=O)OC(C)(C)C)C(=O)CCl [HI-266, N-Boc-O-dodecyl serine chloromethyl ketone]	49.9		37.1		64.5
CC(=O)N[C@@H](CSC(c1ccccc1)(c1ccccc1)c1ccccc1)C(=O)CCl [HI-350, N-Ac-S-trityl-cysteine chloromethyl ketone]	88.8	26.4	87.1	52.2	10
CCCCCCCCCCCCSC[C@H](NC(=O)c1ccccc1)C(=O)CCl [HI-491, N-Benzoyl-S-dodecyl-cysteine chloromethyl ketone]	> 100	6.5	> 100	52.1	5.4
